Columns and labels:
[1] = test system: patients with unstable angina/non Q-wave MI; assay: Dose ranging study: secondary efficacy analysis (clinical endpoints); assay type: in vivo, human; conditions: for AMI / Death (not related to bleeding) / Death or AMI / Death or AMI or recurrent ischemia (Symptomatic) / Recurrent Ischemia (Symptomatic): first active injection to Day 9, per protocol including insufficient Mortara data
Protocol: (§1) A double blind, randomized, controlled dose ranging study was performed testing in parallel four fondaparinux sodium daily dose levels (2.5, 4.0, 8.0 and 12.0 mg) and a dose regimen of enoxaparin (1 mg/Kg bid=twice daily). Efficacy (composite parameter of death, AMI, recurrent ischemia) and safety of the respective doses of fondaparinux sodium were assessed in patients with unstable angina/non Q-wave MI. Further, safety and efficacy of the four different dose levels of fondaparinux sodium and enoxaparin 1 mg/Kg bid were compared.
(§2) The primary analysis for efficacy parameters was performed on the per protocol (PP) population. The choice of the patients to be excluded from PP population for efficacy analyses was defined before unblinding the trial.

[2] = test system: patients with unstable angina/non Q-wave MI; assay: Dose ranging study: safety analysis, adjudicated bleeding events; assay type: in vivo; conditions: for Any bleeding event n (%) / Major bleeding event n (%) / Minor bleeding event n (%): first active injection to Day 9, all treated patients
Protocol: as §1
The primary safety endpoint was the incidence of major bleeding from first active drug administration up to and including Day 9 as adjudicated by a blinded Central Adjudication Committee (CAC). The incidence of any major or minor bleeding was considered as a secondary safety endpoint.
(§3) The safety analysis was performed on the ‘all treated patients’ (ATP) population.

[3] = test system: patients with unstable angina/non Q-wave MI; assay: Dose ranging study in unstable angina: primary efficacy evaluation (composite of death, AMI, recurrent ischemia); assay type: in vivo, human; conditions: for AMI n (%) / Composite endpoint n (%) / Death (not related to bleeding) n (%) / Recurrent ischemia n (%) (Mortara data) / Symptomatic recurrent ischemia n (%): first active injection to Day 9, per protocol excluding insufficient Mortara data
Protocol: as §1
The primary efficacy endpoint consisted of the composite of the following ischeric events starting from first active drug administration up to and including Day 9 (with Day 1 being the day of first active drug administration):
Death from any cause except for death related to bleeding
Acute myocardial infarction (AMI), according to the definition in the protocol
Symptomatic recurrent ischemia (excluding episodes of ischemia during or at any time after CABG (Coronary Artery Bypass Graft) or PTCA (Percutaneous Transluminal Coronary Angioplasty)) or any ischemia on the 48-h continuous 12-lead ECG monitoring (Mortara).
In the event a patient experienced one of these events, the binary composite outcome was regarded as a treatment failure. In contrast, if none of the above events applied, the composite ischemic outcome was considered as a treatment success.
as §2

[4] = test system: patients with unstable angina/non Q-wave MI; assay: Dose ranging study: safety analysis, deaths; assay type: in vivo, human; conditions: for Patients with SAE from First injection Leading to death after day 30 / Patients with SAE from First injection Leading to death between first injection and day 30 / Total deaths reported: all treated patients; for Total deaths reported: first active injection onwards
Protocol: as §1
Other safety endpoints include deaths and all adverse events (latter not reported here).
as §3

## CO[C@H]1O[C@H](COS(=O)(=O)O)[C@@H](O[C@@H]2O[C@@H](C(=O)O)[C@@H](O[C@H]3O[C@H](COS(=O)(=O)O)[C@@H](O[C@@H]4O[C@H](C(=O)O)[C@@H](O[C@H]5O[C@H](COS(=O)(=O)O)[C@@H](O)[C@H](O)[C@H]5NS(=O)(=O)O)[C@H](O)[C@H]4O)[C@H](OS(=O)(=O)O)[C@H]3NS(=O)(=O)O)[C@H](O)[C@H]2OS(=O)(=O)O)[C@H](O)[C@H]1NS(=O)(=O)O [Fondaparinux sodium, methyl O-(2-deoxy-2-sulfoamino-6-O-sulfo-α-D-glucopyranosyl)-(1→4)-O-(β-D-glucopyranosyluronic acid)-(1→4)-O-(2-deoxy-2-sulfoamino-3,6-di-O-sulfo-α-D-glucopyranosyl)-(1→4)-O-(2-O-sulfo-α-L-idopyranosyluronic acid)-(1→4)-2-deoxy-2-sulfoamino-6-O-sulfo-α-D-glucopyranoside]
[1]; 2.5 mg daily (N = 210)
  AMI: 1 (0.5%) n (%)
  Death (not related to bleeding): 2 (1.0%) n (%)
  Death or AMI: 3 (1.4%) n (%)
  Death or AMI or recurrent ischemia (Symptomatic): 27 (12.9%) n (%)
  Recurrent Ischemia (Symptomatic): 26 (12.4%) n (%)
[1]; 2.5 mg group
  death or AMI compared with the other fondaparinux sodium groups: fewer patients tended to experience death or AMI
[1]; 4 mg daily (N = 185)
  AMI: 3 (1.6%) n (%)
  Death (not related to bleeding): 5 (2.7%) n (%)
  Death or AMI: 8 (4.3%) n (%)
  Death or AMI or recurrent ischemia (Symptomatic): 39 (21.1%) n (%)
  Recurrent Ischemia (Symptomatic): 33 (17.8%) n (%)
[1]; 8 mg daily (N = 183)
  AMI: 5 (2.7%) n (%)
  Death (not related to bleeding): 1 (0.5%) n (%)
  Death or AMI: 6 (3.3%) n (%)
  Death or AMI or recurrent ischemia (Symptomatic): 33 (18.0%) n (%)
  Recurrent Ischemia (Symptomatic): 29 (15.8%) n (%)
[1]; 12 mg daily (N = 199)
  AMI: 4 (2.0%) n (%)
  Death (not related to bleeding): 1 (0.5%) n (%)
  Death or AMI: 5 (2.5%) n (%)
  Death or AMI or recurrent ischemia (Symptomatic): 30 (15.1%) n (%)
  Recurrent Ischemia (Symptomatic): 28 (14.1%) n (%)
[2]; 2.5 mg daily (N = 229)
  Any bleeding event n (%): 9 (3.9%) n (%)
  Major bleeding event n (%): 0 (0.0%) n (%)
  Minor bleeding event n (%): 9 (3.9%) n (%)
[2]; 2.5 mg group
  major bleedings observed: No major bleedings were observed
[2]; 4 mg daily (N = 222)
  Any bleeding event n (%): 12 (5.4%) n (%)
  Major bleeding event n (%): 3 (1.4%) n (%)
  Minor bleeding event n (%): 9 (4.1%) n (%)
[2]; 8 mg daily (N = 223)
  Any bleeding event n (%): 12 (5.4%) n (%)
  Major bleeding event n (%): 4 (1.8%) n (%)
  Minor bleeding event n (%): 9 (4.0%) n (%)
[2]; 12 mg daily (N = 238)
  Any bleeding event n (%): 11 (4.6%) n (%)
  Major bleeding event n (%): 1 (0.4%) n (%)
  Minor bleeding event n (%): 10 (4.2%) n (%)
[2]; all dose groups
  differences between fondaparinux sodium groups and the enoxaparin group for safety parameters: No significant differences
[2]; all dose groups vs enoxaparin
  differences between treatment groups for major, minor or any bleeding: No relevant differences
[3]; 2.5 mg daily (N = 203)
  AMI n (%): 1 (0.5%) n (%)
  Composite endpoint n (%): 61 (30.0%) n (%)
  Death (not related to bleeding) n (%): 2 (1.0%) n (%)
  Recurrent ischemia n (%) (Mortara data): 47 (23.2%) n (%)
  Symptomatic recurrent ischemia n (%): 26 (12.8%) n (%)
[3]; 4 mg daily (N = 177)
  AMI n (%): 3 (1.7%) n (%)
  Composite endpoint n (%): 77 (43.5%) n (%)
  Death (not related to bleeding) n (%): 5 (2.8%) n (%)
  Recurrent ischemia n (%) (Mortara data): 63 (35.6%) n (%)
  Symptomatic recurrent ischemia n (%): 33 (18.6%) n (%)
[3]; 8 mg daily (N = 173)
  AMI n (%): 5 (2.9%) n (%)
  Composite endpoint n (%): 71 (41.0%) n (%)
  Death (not related to bleeding) n (%): 1 (0.6%) n (%)
  Recurrent ischemia n (%) (Mortara data): 55 (31.8%) n (%)
  Symptomatic recurrent ischemia n (%): 29 (16.8%) n (%)
[3]; 12 mg daily (N = 187)
  AMI n (%): 4 (2.1%) n (%)
  Composite endpoint n (%): 65 (34.8 %) n (%)
  Death (not related to bleeding) n (%): 1 (0.5%) n (%)
  Recurrent ischemia n (%) (Mortara data): 56 (29.9%) n (%)
  Symptomatic recurrent ischemia n (%): 28 (15.0%) n (%)
[3]; All doses pooled (N = 740)
  AMI n (%): 13 (1.8%) n (%)
  Composite endpoint n (%): 274 (37.0%) n (%)
  Death (not related to bleeding) n (%): 9 (1.2%) n (%)
  Recurrent ischemia n (%) (Mortara data): 221 (29.9%) n (%)
  Symptomatic recurrent ischemia n (%): 116 (15.7%) n (%)
[3]; all fondaparinux sodium doses
  efficacy compared with enoxaparin 1 mg/Kg bid: at least as effective as enoxaparin
[3]; all fondaparinux sodium groups pooled
  incidence of the composite endpoint: 37.0%
[3]; four fondaparinux sodium groups (2.5, 4.0, 8.0, 12.0 mg)
  dose-response for the primary endpoint: No dose-response
[4]; 2.5 mg daily (N = 229)
  Patients with SAE from First injection Leading to death after day 30: 1 (0.4%) Number (%)
  Patients with SAE from First injection Leading to death between first injection and day 30: 3 (1.3%) Number (%)
  Total deaths reported: 4 (1.7%) Number (%)
[4]; 4 mg daily (N = 222)
  Patients with SAE from First injection Leading to death after day 30: 3 (1.4%) Number (%)
  Patients with SAE from First injection Leading to death between first injection and day 30: 7 (3.2%) Number (%)
  Total deaths reported: 10 (4.5%) Number (%)
[4]; 8 mg daily (N = 223)
  Patients with SAE from First injection Leading to death after day 30: 2 (0.9%) Number (%)
  Patients with SAE from First injection Leading to death between first injection and day 30: 4 (1.8%) Number (%)
  Total deaths reported: 6 (2.7%) Number (%)
[4]; 12 mg daily (N = 238)
  Patients with SAE from First injection Leading to death after day 30: 1 (0.4%) Number (%)
  Patients with SAE from First injection Leading to death between first injection and day 30: 6 (2.5%) Number (%)
  Total deaths reported: 7 (2.9%) Number (%)
[4]; all dose groups vs enoxaparin
  differences in the percentage of deaths between treatment groups: No relevant differences
